Test results reported in patent publication US9763994B2, “Composition for promoting wound healing” (INDUSTRY-ACADEMIC COOPERATION FOUNDATION, YONSEI UNIVERSITY, priority 2014, dated 2017).

Tests used:
keratinocytes = experiment: Immunocytochemical staining of keratinocytes (peptide infiltration, β-catenin); format: cell-based; conditions: FIG. 1
Protocol: (§1) For immunocytochemical staining, keratinocytes or fibroblasts were cultured on a 24-well plate and fixed in 4% paraformaldehyde for 15 minutes. After treating with 0.1% Triton X-100 for 15 minutes so that antibodies can permeate well and blocking with albumin so as to prevent nonspecific antigen-antibody reactions, antigen-antibody reactions were induced by treating with β-catenin antibodies. Then, after inducing antigen-antibody reactions by treating with fluorescence-labeled secondary antibodies that can recognize the antibodies as antigens, the result was observed under a fluorescence microscope.

fibroblasts = experiment: Immunocytochemical staining of fibroblasts (peptide infiltration, β-catenin); format: cell-based; conditions: FIG. 1
Protocol: as §1

[1] = tested on: acute wound in a mouse model; experiment: Mouse acute wound healing model (wound closure, H&E, immunohistochemical staining); format: in vivo, C3H mouse; conditions: for re-epithelialization of the acute wound (H&E staining): C3H mouse wound
Protocol: (A) In order to confirm the wound healing promoting effect of the peptide synthesized in Example 1, hair was removed the back of a 7-week-old C3H mouse and a 1.5 cm×1.5 cm sized wound was made. For a control group, 10 μL of a vehicle (50% ethanol, 20% propylene glycol, 30% water) was applied once a day for a period of 12 days. For test groups, 10 μL of the peptide or valproic acid (VPA) dissolved in the vehicle at concentrations of 100 μM and 500 mM, respectively, was applied. The skin tissue of the experimental mouse was fixed in 4% paraformaldehyde, embedded in paraffin and sliced with a thickness of 4 μm. The sliced tissue was deparaffinized, rehydrated and then stained with hematoxylin (violet) and eosin (pink) for observation of histological structure. For immunohistochemical staining, the skin tissue slice was deparaffinized, rehydrated and then incubated with 10 mM sodium citrate buffer at 121° C. for 15 minutes to recover antigenicity. The slice was blocked with albumin to prevent nonspecific antigen-antibody reactions and then antigen-antibody reactions were induced by treating with β-catenin (1:100), keratin 14 (1:1000) and collagen I (1:500) antibodies used as wound healing markers. Subsequently, after inducing antigen-antibody reactions by treating the slice with fluorescence-labeled secondary antibodies that can recognize the antibodies as antigens, the result was observed using a fluorescence microscope.
(B) In order to compare the wound healing promoting effect of the synthesized peptide with that of the existing drug, 10 μL of a vehicle (50% ethanol, 20% propylene glycol, 30% water), 100 μM PTD-DBM or 1.5 μM fibronectin was applied on a 1.5 cm×1.5 cm sized wound of a 7-week-old C3H mouse once a day for a period of 12 days.

[2] = tested on: β-catenin, keratin 14, α-SMA, collagen I; experiment: Western blotting of mouse wound tissue; format: in vivo, C3H mouse; conditions: wound tissue of Test Example 2; versus control; FIG. 3
Protocol: The wound tissue used in Test Example 2 was lysed with RIPA buffer and proteins were isolated on 10% SDS polyacrylamide gel and then transferred onto a membrane. The membrane was blocked using 5% nonfat dry skim milk and then incubated with β-catenin (1:1000), α-SMA (1:1000), keratin 14 (1:1000) and collagen I (1:2000) antibodies. After inducing antigen-antibody reactions by adding enzyme-conjugated secondary antibodies that can recognize the antibodies as antigens, the result was observed using a LAS image analyzer.

collagen [3] = experiment: Collagen staining of mouse acute wound tissue (Masson's trichrome, picrosirius red, van Gieson); format: in vivo, C3H mouse; conditions: wound tissue of Test Example 2; FIG. 4A
Protocol: (A) The mouse tissue used in Test Example 2 was fixed in 4% paraformaldehyde, embedded in paraffin and sliced with a thickness of 4 μm. The sliced tissue was deparaffinized, rehydrated and then subjected to van Gieson staining, Masson's trichrome staining and picrosirius red staining in order to evaluate the degree of collagen synthesis. Van Gieson staining was conducted by immersing the slide in Weigert's solution for 10 minutes and then in picro fuchsin solution for 2 minutes. Masson's trichrome staining was conducted by immersing the slide in Weigert's iron hematoxylin solution for 10 minutes and then in Biebrich scarlet/acid fuchsin and aniline blue for 5 minutes, respectively. Picrosirius red staining was conducted by immersing the slide in Weigert's solution for 8 minutes and then in picrosirius red for 1 hour.

collagen [4] = experiment: Hydroxproline assay of mouse acute wound tissue; format: in vivo, C3H mouse; conditions: wound tissue of Test Example 2; absorbance at 550 nm; FIG. 4B
Protocol: (B) The tissue used in Test Example 2 was dried in an incubator at 60° C. and then hydrolyzed at 110° C. with 6 N HCl. After adding chloramine T and Ehrlich's reagent to the hydrolyzed tissue, absorbance was measured at 550 nm using the FLUOstar OPTIMA luminometer.

[5] = 10 μL topical once a day for 12 days, peptide 100 μM, VPA 500 mM

“RRRRRRRRGGGGRKTGHQICKFRKCK-(FITC) [PTD-DBM]” was tested, and the β-catenin (keratinocytes) was “increased β-catenin in a concentration-dependent manner”, the β-catenin (fibroblasts) was “increased β-catenin in a concentration-dependent manner” and the “wound healing effect compared with fibronectin” value ([1]; 100 μM PTD-DBM vs 1.5 μM fibronectin, 10 μL once a day for 12 days, C3H mouse, FIG. 2B) was “excellent when compared with that of fibronectin”. For the same compound, the “healing of acute wound” value ([1]; 1.5 cm×1.5 cm wound, 7-week-old C3H mouse, 10 μL topical once a day for 12 days, peptide 100 μM, VPA 500 mM, FIGS. 2A and 2B) was “could quickly heal the acute wound”, the “re-epithelialization of the acute wound (H&E staining)” value [1, 5] was “quick re-epithelialization” and the “wound healing markers β-catenin, keratin 14, α-SMA or collagen I (western blotting)” value [2] was “increased as compared to the control”. For the same compound, the “collagen in acute wound tissue (Masson's trichrome, picrosirius red and van Gieson staining)” value (collagen [3]) was “increased collagen” and the “collagen in acute wound tissue (hydroxproline assay)” value (collagen [4]) was “increased collagen”.
`CCCC(CCC)C(=O)O` [VPA, valproic acid, reference compound] was tested, and the “re-epithelialization of the acute wound (H&E staining)” value [1, 5] was “quick re-epithelialization”, the “wound healing markers β-catenin, keratin 14, α-SMA or collagen I (western blotting)” value [2] was “increased as compared to the control” and the “collagen in acute wound tissue (Masson's trichrome, picrosirius red and van Gieson staining)” value (collagen [3]) was “increased collagen”. The “collagen in acute wound tissue (hydroxproline assay)” value (collagen [4]) was “increased collagen”.
